Test results taken from patent US20260317272A1, “USE OF STROBILURIN TYPE COMPOUNDS FOR COMBATING PHYTOPATHOGENIC FUNGI CONTAINING AN AMINO ACID SUBSTITION F129L IN THE MITOCHONDRIAL CYTOCHROME B PROTEIN CONFERRING RESISTANCE TO QO INHIBITORS XVI” (priority 2023, published 2026).

Legend:
Pyrenophora teres = test: Use Example 12: control of net blotch on barley (PYRNTE P4); type: in vivo, Pyrenophora (syn. Drechslera) teres; conditions: F129L strain, inoculated seven days later, 16 ppm, untreated 80%
Protocol: (§1) The compound was dissolved in a mixture of acetone and/or dimethylsulfoxide and the wetting agent/emulsifier Wettol, which is based on ethoxylated alkylphenoles, in a ratio (volume) solvent-emulsifier of 99 to 1 to give a total volume of 5 ml. Subsequently, water was added to total volume of 100 ml. This stock solution was then diluted with the described solvent-emulsifier-water mixture to the final concentration given in the tables below.
Use Example 12. Control of Net Blotch on Barley Caused by Pyrenophora teres (PYRNTE P4)
The first fully developed leaves of potted barley plants were sprayed to run-off previously described spray solution, containing the concentration of active ingredient or their mixture mentioned in the table below. Seven days later the treated plants were inoculated with an aqueous spore suspension of Pyrenophora (syn. Drechslera) teres. The strain used contains the amino acid substitution F129L in the mitochondrial cytochrome b protein conferring resistance to Qo inhibitors. After up to 19 days of cultivation at 20-24° C. and a relative humidity close to 70%, the extent of fungal attack on the leaves was visually assessed as % diseased leaf area.

Puccinia sorghi = test: Use Example 8: protective control of corn rust on corn (PUCCSO P1); type: in vivo; conditions: 16 ppm, untreated 80%
Protocol: as §1
Use Example 8. Protective Control of Corn Rust on Corn Caused by Puccinia sorghi (PUCCSO P1)
The primary leaves of potted corn seedling were sprayed to run-off with previously described spray solution, containing the concentration of active ingredient or their mixture as described below. One day later the plants were dusted with before harvested spores of Puccinia sorghi. To ensure the success of the artificial inoculation, the plants were transferred to a humid chamber without light and a relative humidity of […] and 20 to 24° C. and were there incubated for about fourteen days. The extent of fungal attack on the primary leaves was visually assessed as % diseased leaf area.

Sclerotinia sclerotiorum = test: Use Example 13: preventative fungicidal control of white mold on soy beans (SCLESC P1 mycelium); type: in vivo; conditions: 63 ppm, untreated 85%
Protocol: as §1
Use Example 13. Preventative Fungicidal Control of White Mold on Soy Beans Caused by Sclerotinia sclerotiorum (SCLESC P1 Mycelium)
Young seedlings of soy beans were grown in pots. These plants were sprayed to run-off with previously described spray solution, containing the concentration of active ingredient or mixture mentioned in the table below. The next day the treated plants were inoculated with a biomalt suspension, containing the mycelium of Sclerotinia sclerotiorum. Then the trial plants were cultivated for 6 days in a greenhouse chamber at 23° C. and a relative humidity between 80 and 85%. The extent of fungal attack on the leaves was visually assessed as % diseased leaf area.

SMILES	Diseased leaf area (%) (Pyrenophora teres)	Diseased leaf area (%) (Puccinia sorghi)	Diseased leaf area (%) (Sclerotinia sclerotiorum)
CO/C=C(/C(=O)OC)c1cccc(C)c1CO/N=C(\COC)c1c(F)cc(F)cc1F [Compound 4, methyl (E)-3-methoxy-2-[2-[[(Z)-[2-methoxy-1-(2,4,6-trifluorophenyl)ethylidene]amino]oxymethyl]-3-methyl-phenyl]prop-2-enoate]	4		
CNC(=O)/C(=N/OC)c1cccc(C)c1CO/N=C(\COC)c1c(F)cc(OC)cc1F [Compound 7, (2E)-2-[2-[[(Z)-[1-(2,6-difluoro-4-methoxy-phenyl)-2-methoxy-ethylidene]amino]oxymethyl]-3-methyl-phenyl]-2-methoxyimino-N-methyl-acetamide]	6	12	4
CNC(=O)/C(=N/OC)c1cccc(C)c1CO/N=C(\COC)c1ccc(F)c(F)c1 [Compound 5, (2E)-2-[2-[[(Z)-[1-(3,4-difluorophenyl)-2-methoxy-ethylidene]amino]oxymethyl]-3-methylphenyl]-2-methoxyimino-N-methyl-acetamide]	4	0	
COC/C(=N\OCc1c(C)cccc1/C(=N\OC)C(=O)OC)c1c(F)cc(F)cc1F [Compound 2, methyl (2E)-2-methoxyimino-2-[2-[[(Z)-[2-methoxy-1-(2,4,6-trifluorophenyl)ethylidene]amino]oxymethyl]-3-methyl-phenyl]acetate]	13		
CNC(=O)/C(=N/OC)c1cccc(C)c1CO/N=C(\COC)c1c(F)cc(F)cc1F [Compound 1, (2E)-2-methoxyimino-2-[2-[[(Z)-[2-methoxy-1-(2,4,6-trifluorophenyl)ethylidene]amino]oxymethyl]-3-methyl-phenyl]-N-methyl-acetamide]	10		
